# Patent US20030220415A1, “Heterocyclic amine diol compounds and their biocidal derivatives” (priority 2002, published 2003)
# Like-named read-outs stand apart in the source and are kept apart here.
# System: Staphylococcus aureus bacteria
# Conditions: 1957 mg/L solution, chlorine-demand-free water pH 7, ambient temperature
smiles,measurement,setting,value
"CC1(C)C(=O)N(CN(CCO)CCO)C(=O)N1Cl [chlorinated heterocyclic amine diol, 1-chloro-3-[1-bis(N,N-2-hydroxyethyl)aminomethyl]-5,5-dimethyl-1,3-imidazolidin-2,4-dione]",inactivation of Staphylococcus aureus,contact time 30 min,> 5 logs
same,inactivation of Staphylococcus aureus,contact time 60 min,> 5 logs
